Experimental data published in patent US7745420B2, “Methods for increasing in vivo efficacy of oligonucleotides and inhibiting inflammation in mammals” (Topigen Pharmaceutique, Inc., priority 2001, dated 2010).
[DAP] = 2,6-diaminopurine base replacing adenine; [I] = hypoxanthine (inosine)

How the values were obtained:
[1] = system: sensitized Brown Norway rats; test: Airway responsiveness (lung resistance) to intratracheal adenosine, DAP nucleoside and DAP analogs; type: in vivo, rat
Description: (§1) Active sensitization of rats was performed by subcutaneous injection of 1 ml of saline containing 1 mg of chicken egg ovalbumin (OA) (Sigma, St. Louis, Mo.) and 3.5 mg of aluminum hydroxide gel (BDH Chemicals, Poole, UK).
(§2) The equipment and methodology for measuring pulmonary resistance was as previously described (Renzi, P. M., et al. Am. Rev. Respir. Dis 146: 163-169, 1992). General anesthesia was induced with either pentothal (50 mg/kg) or urethane (1.1 g/kg) intra-peritoneally. Endo-tracheal intubation was then performed using a 6 cm length of PE-240™ polyethylene catheter. A heating pad was used to maintain constant body temperature and rectal temperature was monitored continuously with an electronic thermometer (Telethermometer™, Yellow Springs Instrument Co., Yellowsprings, Ohio). Lung resistance (RL) was measured during spontaneous tidal breathing with the animals in the lateral decubitus position. Flow was measured by placing the tip of the tracheal tube inside a small Plexiglass™ box (265 ml in volume). A Fleish™ No. 0 pneumotachograph coupled to a differential pressure transducer (MP-45+2 cm H20; Validyne Corp, Northridge, Calif.) was attached to the other end of the box to measure airflow, and volume was obtained by numerical integration of the flow signal. Changes in esophageal pressure were measured by using a saline-filled catheter and a differential pressure transducer (Sanborn 267 BC™; Hewlett Packard, Waltham, Mass.). The other port of the transducer was connected to the box. The esophageal catheter consisted of polyethylene tubing (PE-200™) 20-cm long attached to a shorter length (6 cm) of tubing (PE-100™). Transpulmonary pressure was computed as the difference between esophageal and box pressure. The airway response was evaluated from RL, which was determined by fitting the equation of motion of the lung by multiple linear regression using commercial software (RHT-Infodat Inc., Montreal, Quebec, Canada).
On day 14 post-sensitization, rats were anesthetized with pentothal (65 mg/kg), intubated, and baseline RL was measured. Rats were given incremental doses intratracheally of adenosine (CAS 58-61-7), 2,6-diaminopurine hemisulfate salt (CAS 69369-16-0), DAP (2-amino-2-deoxyadenosine; CAS 4546-70-7), 2-amino-9-(B-D-2′-deoxyribo furanosyl)purine (CAS 3616-24-8), 7-Deaza-2′deoxyadenosine (CAS 60129-59-1), N6-Methyl-2′-deoxyadenosine (CAS 2002-35-9), 2-aminoadenosine/2,6-diamunopurine riboside (CAS 2096-10-08) over the dose range of 0.125 μg to 100 μg in 50 μl of either saline or saline plus acetic acid. Immediately after each dose RL was measured. DAP was dissolved as follows: 3 mg of DAP was combined with 100 μl of acetic acid, adjusted to 1.5 to 3 ml by the addition of saline, and heated to 70° C. This gave a final concentration of 1 to 2 μg/μl. Dilutions were performed in the same buffer. Control animals received saline with acetic acid at the same final concentration as indicated.

rat model of asthma [2] = test: Leukotriene D4 responsiveness after antigen (ovalbumin) challenge; type: in vivo; details: 200 μg intratracheal, 15 hours after ovalbumin challenge; for airway responsiveness to leukotriene D4: vs control challenged and DAP mismatch treated rats
Description: as §1, §2
We have previously shown that the antisense ASA4 (5′-ACTCATATTC ATAGGGTG-3′; SEQ ID NO:26) directed against the rat CCR3 receptor was effective at inhibiting eosinophil influx into the lungs after antigen challenge (see WO 99/66037). We employed the same oligonucleotide sequences for these experiments. […] After 15 hours, the rats were again intubated after general anesthesia, baseline lung resistance measured and doubling concentrations of leukotriene D4 injected intratracheally (50 ng to 1600 ng) until baseline lung resistance doubled (EC200).

rat model of asthma [3] = test: Cellular influx into the lungs after antigen challenge (lung lavage differential cell count); type: in vivo; details: 200 μg intratracheal before ovalbumin challenge; for inhibition of recruitment of eosinophils: bronchoalveolar lavage after 15 hours
Description: as §1
On day 14 after sensitization with ovalbumin, after general anesthesia with 65 mg/Kg pentothal and endotracheal intubation, ovalbumin challenge is performed by injecting 200 micrograms of ovalbumin in 60 μl intratracheally. After 8 hours or 15 hours, the rats are again intubated after general anesthesia and a lung lavage consisting of 5 times 5 ml instillation of 0.9% saline is performed. Cells are washed, counted and centrifuged onto slides in a Cytospin III™. A differential cell count is performed.
On day 14, the rats were intubated after general anesthesia with pentothal (65 mg/kg) and received 200 μg of ASA4, ASA4-DAP (5′-DapCTCDapTDapTTCDapTDapGGGTG-3′; SEQ ID NO:27), AS141-DAP (5′-TGGCDapCTTTDapGGTGGCTG-3′; SEQ ID NO:29), mismatch AS141-DAP (5′-GTGCCDapTTTGDapGTGGCTG-3′; SEQ ID NO:30), combination of ASA4-DAP and AS141-DAP (total of 100 μg) or saline in 50 μl of 0.9% NaCl intratracheally. Twenty minutes later ovalbumin challenge is performed by injecting 200 μg of ovalbumin in 50 μl of 0.9% saline intratracheally. After 15 hours, the rats were again intubated after general anesthesia, and a lung lavage consisting of 5 times 5 ml instillation was performed. Cells were washed, counted and centrifuged onto slides in a Cytospin III™. A differential cell count was finally performed.

[4] = system: sensitized but unchallenged Brown Norway rats; test: Cellular influx into the lungs after adenosine or DAP administration; type: in vivo, rat
Description: Fourteen days after sensitization, the rats were intubated after anesthesia with pentothal 65 mg/kg, and 100 μg of adenosine or 2-amino-2′-deoxyadenosine or of 2-amino-2′deoxyadenosine followed 10 minutes later by adenosine or of saline was injected intratracheally in 50 μl. Fifteen hours later, the rats were intubated after general anesthesia with pentothal, and a lung lavage was performed and the cells were counted as described above.
In another experiment, groups of six sensitized but unchallenged Brown Norway rats were anesthetized with pentothal and endotracheally intubated. The rats then received an intratracheal injection of either (1) saline (control), (2) 100 μg of adenosine, (3) 100 μg of 2-amino-2′-deoxyadenosine (DAP) or (4) 100 μg of DAP followed by 100 μg of adenosine 10 minutes later. The rats were awakened, re-anesthetized and intubated 15 hours later for a lung lavage. Cells that were present in media collected from the lavage, were counted and a differential was obtained on Cytospin∩ slides.

rat model of asthma [5] = details: see WO 99/66037; cited from earlier work
[6] = system: common Beta chain of human GM-CSF, IL-3 and IL-5 receptor; test: Semi-quantitative RT-PCR of common beta chain mRNA in U937 cells treated with antisense; type: cell-based; details: 10 μmol, six hours, compared to AS107
Description: Experiments were performed to assess whether antisense oligonucleotides described in international application WO 99/66037 (incorporated herein) directed against the common beta sub-unit of the IL-3, IL-5 and GM-CSF receptor, could inhibit the expression and the function of this receptor when modified by replacing adenosine by either 2-amino-2′-deoxyadenosine or inosine. TF-1 and U937 cells express high levels of GM-CSF receptors. In addition, TF-1 cells are dependent on GM-CSF for survival. These cells were cultured in RPMI 1640 supplemented with 10% heat-inactivated fetal calf serum, penicillin, streptomycin and 1-glutamine at 37° C. in 5% CO2 (the TF-1 cells were supplemented with GM-CSF). […] The sequence for 107A-DAP was: 5′-GGGTCTGCDapGCGGGDapTGGT-3′ (SEQ ID NO:21); the sequence for 107A-inosine (107A-I) was: 5′-GGGTCTGCIGCGGGIT GGT-3′ (SEQ ID NO:22). The cells were retrieved and washed 3 times. RNA was then retrieved and the presence of the beta chain of the receptor was assessed by semi-quantitative RT-PCR.

[7] = at peak adenosine toxicity (5 μg)
[8] = at 5 fold lower concentration (1 μg)
[9] = 100 μg intratracheal, lung lavage 15 hours later

## CNc1ncnc2c1ncn2[C@H]1C[C@H](O)[C@@H](CO)O1 [N6-Methyl-2′deoxyadenosine, N6-methyl-2′-deoxyadenosine]
[1]; [7]
  relative toxicity ranking (lung resistance): adenosine>N6-Methyl-2′deoxyadenosine>rest including DAP

## 5′-DapCTCDapTDapTTCDapTDapGGGTG-3′ (antisense NCTCNTNTTCNTNGGGTG; DNA, [DAP] at 1, 5, 7, 11, 13, all phosphorothioate, methylation of C not given here) [ASA4-DAP]
Rat model of asthma [2]
  airway responsiveness to leukotriene D4, compared to unchallenged rats: no different
  airway responsiveness to leukotriene D4, compared to unmodified ASA4: tended to be more effective
  airway responsiveness to leukotriene D4: significantly decreased
Rat model of asthma [3]
  inhibition of recruitment of eosinophils: 83%
Rat model of asthma [3]; lavage after 15 hours
  decrease of lymphocyte recruitment: 74%
  macrophage recruitment: tended to decrease
  neutrophil recruitment: tended to decrease

## Nc1ncnc2c1ncn2[C@@H]1O[C@H](CO)[C@@H](O)[C@H]1O [adenosine, reference compound]
[1]; [8]
  relative toxicity ranking (lung resistance): adenosine>2 amino-2 deoxyadenosine/DAP>rest
[1]; [7]
  relative toxicity ranking (lung resistance): adenosine>N6-Methyl-2′deoxyadenosine>rest including DAP
[1]; incremental intratracheal doses, sensitized rats
  dose at which lung resistance peaks: 5 µg
[4]; [9]
  effect on other cell types in lung lavage: without significantly affecting other cell types
  increase of eosinophil recruitment into the lungs: more than 10 fold

## 5′-TGGCDapCTTTDapGGTGGCTG-3′ (antisense TGGCNCTTTNGGTGGCTG; diaminopurine (Dap) replaces adenosine at two places, sugar and backbone not given here, further chemistry not given here) [AS141-DAP]
Rat model of asthma [3]; lavage after 15 hours
  macrophage recruitment: significantly decreased
  recruitment of eosinophils: effectively inhibited

## 5′-TGGCACTTTAGGTGGCTG-3′ (phosphorothioate backbone, further chemistry not given here) [AS141]
Rat model of asthma [2]
  airway responsiveness to leukotriene D4: decreased significantly
Rat model of asthma [3]; lavage after 15 hours
  lymphocyte recruitment: significant decrease
  macrophage recruitment: significant decrease
  neutrophil recruitment: strong trends for decreases
  recruitment of eosinophils: effectively inhibited
Rat model of asthma [5]
  inhibition of the eosinophil influx that occurs after antigen challenge: inhibit the eosinophil influx

## 5′-ACTCATATTC ATAGGGTG-3′ (antisense ACTCATATTCATAGGGTG; DNA, all phosphorothioate, methylation of C not given here) [ASA4]
Rat model of asthma [3]
  inhibition of recruitment of eosinophils: 84%
Rat model of asthma [3]; lavage after 15 hours
  lymphocyte recruitment: significant decrease
  macrophage recruitment: strong trends for decreases
  neutrophil recruitment: strong trends for decreases
Rat model of asthma [5]
  inhibition of the eosinophil influx that occurs after antigen challenge: inhibit the eosinophil influx

## Nc1nc(N)c2ncn([C@H]3C[C@H](O)[C@@H](CO)O3)c2n1 [DAP, 2-amino-2-deoxyadenosine]
[1]; [8]
  relative toxicity ranking (lung resistance): adenosine>2 amino-2 deoxyadenosine/DAP>rest
[1]; [7]
  relative toxicity ranking (lung resistance): adenosine>N6-Methyl-2′deoxyadenosine>rest including DAP
[1]; incremental doses 0.125 μg to 100 μg intratracheal, sensitized rats
  effect on lung resistance (% baseline) after intratracheal dosing: does not significantly increase lung resistance
[4]; 100 μg DAP followed by 100 μg adenosine 10 minutes later, lavage 15 hours later
  inhibition of eosinophil recruitment induced by adenosine: completely inhibits the recruitment of eosinophils

## 5′-GGGTCTGCIGCGGGIT GGT-3′ (DNA GGGTCTGCNGCGGGNTGGT; DNA, [I] at 9, 15, backbone and methylation of C not given here) [AS107-I, reference compound]
[6]
  inhibiting mRNA expression, semi-quantitative PCR: not effective
